Experiments:
Assay in all cases: KinaseProfiler off-target kinase profiling
Type in all cases: biochemical
Conditions in all cases: 10 μM, ATP near Km
PTK6 = biological target: T1, PTK6 (Homo sapiens, UniProt Q13882)
T1 construct: purchased Millipore (KinaseProfiler service)
How it was run: (§1)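 Each kinase in the full panel was exposed to the compound at 10 μM under ATP conditions approximating that enzyme's Km. Two replicates were run, and their mean activity versus control is what is reported.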

AURKA = biological target: T2, AURKA (Homo sapiens, UniProt O14965)
T2 construct: purchased Millipore, Inc. (KinaseProfiler service)
How it was run: as §1

HIPK1 = biological target: T3, HIPK1 (Homo sapiens, UniProt Q86Z02)
T3 construct: purchased Millipore, Inc. (KinaseProfiler service)
How it was run: as §1

CHK1 = biological target: T4, CHK1 (Homo sapiens, UniProt O14757)
T4 construct: purchased Millipore, Inc. (KinaseProfiler service)
How it was run: as §1

EphA8 = biological target: T5, EphA8 (Homo sapiens, UniProt P29322)
T5 construct: purchased Millipore, Inc. (KinaseProfiler service)
How it was run: as §1

DAPK2 = biological target: T6, DAPK2 (Homo sapiens, UniProt Q9UIK4)
T6 construct: purchased Millipore, Inc. (KinaseProfiler service)
How it was run: as §1

Syk = biological target: T7, Syk (Homo sapiens, UniProt P43405)
T7 construct: purchased Millipore, Inc. (KinaseProfiler service)
How it was run: as §1

MSK1 = biological target: T8, MSK1 (Homo sapiens, UniProt O75582)
T8 construct: purchased Millipore, Inc. (KinaseProfiler service)
How it was run: as §1

Fms = biological target: T9, Fms (Homo sapiens, UniProt P07333)
T9 construct: purchased Millipore, Inc. (KinaseProfiler service)
How it was run: as §1

AMPK(A1/B1/G1) = biological target: T10, AMPK(A1/B1/G1) (Homo sapiens, UniProt Q13131)
T10 construct: purchased Millipore, Inc. (KinaseProfiler service)
How it was run: as §1

CK1_y = system: CK1_y
How it was run: as §1

Plk3 = biological target: T11, Plk3 (Homo sapiens, UniProt Q9H4B4)
T11 construct: purchased Millipore (KinaseProfiler service)
How it was run: as §1

MAP3K5 = biological target: T12, MAP3K5 (Homo sapiens, UniProt Q99683)
T12 construct: purchased Millipore, Inc. (KinaseProfiler service)
How it was run: as §1

CDK9/cyclinT1 = biological target: T13, CDK9/cyclinT1 (Homo sapiens, UniProt P50750)
T13 construct: purchased Millipore, Inc. (KinaseProfiler service)
How it was run: as §1

MKNK2 = biological target: T14, MKNK2 (Homo sapiens, UniProt Q9HBH9)
T14 construct: purchased Millipore, Inc. (KinaseProfiler service)
How it was run: as §1

AKT1 = biological target: T15, AKT1 (Homo sapiens, UniProt P31749)
T15 construct: purchased Millipore, Inc. (KinaseProfiler service)
How it was run: as §1

MARK2 = biological target: T16, MARK2 (Homo sapiens, UniProt Q7KZI7)
T16 construct: purchased Millipore, Inc. (KinaseProfiler service)
How it was run: as §1

p38gamma = biological target: T17, p38gamma (Homo sapiens, UniProt P53778)
T17 construct: purchased Millipore, Inc. (KinaseProfiler service)
How it was run: as §1

GSK3alpha = biological target: T18, GSK3alpha (Homo sapiens, UniProt P49840)
T18 construct: purchased Millipore, Inc. (KinaseProfiler service)
How it was run: as §1

HIPK3 = biological target: T19, HIPK3 (Homo sapiens, UniProt Q9H422)
T19 construct: purchased Millipore, Inc. (KinaseProfiler service)
How it was run: as §1

JAK2 = biological target: T20, JAK2 (Homo sapiens, UniProt O60674)
T20 construct: purchased Millipore, Inc. (KinaseProfiler service)
How it was run: as §1

Rsk3 = biological target: T21, Rsk3 (Homo sapiens, UniProt Q15349)
T21 construct: purchased Millipore (KinaseProfiler service)
How it was run: as §1

PKCeta = biological target: T22, PKCeta (Homo sapiens, UniProt P24723)
T22 construct: purchased Millipore, Inc. (KinaseProfiler service)
How it was run: as §1

ITK = biological target: T23, ITK (Homo sapiens, UniProt Q08881)
T23 construct: purchased Millipore, Inc. (KinaseProfiler service)
How it was run: as §1

MYLK = biological target: T24, MYLK (Homo sapiens, UniProt Q15746)
T24 construct: purchased Millipore, Inc. (KinaseProfiler service)
How it was run: as §1

Plk1 = biological target: T25, Plk1 (Homo sapiens, UniProt P53350)
T25 construct: purchased Millipore (KinaseProfiler service)
How it was run: as §1

CDK5/p35 = biological target: T26, CDK5/p35 (Homo sapiens, UniProt Q00535)
T26 construct: purchased Millipore, Inc. (KinaseProfiler service)
How it was run: as §1

EphA4 = biological target: T27, EphA4 (Homo sapiens, UniProt P54764)
T27 construct: purchased Millipore, Inc. (KinaseProfiler service)
How it was run: as §1

PTK5 = biological target: T28, PTK5 (Homo sapiens, UniProt P42685)
T28 construct: purchased Millipore (KinaseProfiler service)
How it was run: as §1

PKCbetaI = biological target: T29, PKCbetaI (Homo sapiens, UniProt P05771)
T29 construct: purchased Millipore, Inc. (KinaseProfiler service)
How it was run: as §1

EphA3 = biological target: T30, EphA3 (Homo sapiens, UniProt P29320)
T30 construct: purchased Millipore, Inc. (KinaseProfiler service)
How it was run: as §1

DAPK3 = biological target: T31, DAPK3 (Homo sapiens, UniProt O43293)
T31 construct: purchased Millipore, Inc. (KinaseProfiler service)
How it was run: as §1

Ros = biological target: T32, Ros (Homo sapiens, UniProt P08922)
T32 construct: purchased Millipore (KinaseProfiler service)
How it was run: as §1

EphA5 = biological target: T33, EphA5 (Homo sapiens, UniProt P54756)
T33 construct: purchased Millipore, Inc. (KinaseProfiler service)
How it was run: as §1

SGK3 = biological target: T34, SGK3 (Homo sapiens, UniProt Q96BR1)
T34 construct: purchased Millipore, Inc. (KinaseProfiler service)
How it was run: as §1

SGK2 = biological target: T35, SGK2 (Homo sapiens, UniProt Q9HBY8)
T35 construct: purchased Millipore, Inc. (KinaseProfiler service)
How it was run: as §1

IKKbeta = biological target: T36, IKKbeta (Homo sapiens, UniProt O14920)
T36 construct: purchased Millipore, Inc. (KinaseProfiler service)
How it was run: as §1

ROCK-I = biological target: T37, ROCK-I (Homo sapiens, UniProt Q13464)
T37 construct: purchased Millipore (KinaseProfiler service)
How it was run: as §1

DDR2 = biological target: T38, DDR2 (Homo sapiens, UniProt Q16832)
T38 construct: purchased Millipore, Inc. (KinaseProfiler service)
How it was run: as §1

PASK = biological target: T39, PASK (Homo sapiens, UniProt Q96RG2)
T39 construct: purchased Millipore, Inc. (KinaseProfiler service)
How it was run: as §1

PRKG1alpha = biological target: T40, PRKG1alpha (Homo sapiens, UniProt Q13976)
T40 construct: purchased Millipore (KinaseProfiler service)
How it was run: as §1

T3 sequence (Q86Z02 whole entry): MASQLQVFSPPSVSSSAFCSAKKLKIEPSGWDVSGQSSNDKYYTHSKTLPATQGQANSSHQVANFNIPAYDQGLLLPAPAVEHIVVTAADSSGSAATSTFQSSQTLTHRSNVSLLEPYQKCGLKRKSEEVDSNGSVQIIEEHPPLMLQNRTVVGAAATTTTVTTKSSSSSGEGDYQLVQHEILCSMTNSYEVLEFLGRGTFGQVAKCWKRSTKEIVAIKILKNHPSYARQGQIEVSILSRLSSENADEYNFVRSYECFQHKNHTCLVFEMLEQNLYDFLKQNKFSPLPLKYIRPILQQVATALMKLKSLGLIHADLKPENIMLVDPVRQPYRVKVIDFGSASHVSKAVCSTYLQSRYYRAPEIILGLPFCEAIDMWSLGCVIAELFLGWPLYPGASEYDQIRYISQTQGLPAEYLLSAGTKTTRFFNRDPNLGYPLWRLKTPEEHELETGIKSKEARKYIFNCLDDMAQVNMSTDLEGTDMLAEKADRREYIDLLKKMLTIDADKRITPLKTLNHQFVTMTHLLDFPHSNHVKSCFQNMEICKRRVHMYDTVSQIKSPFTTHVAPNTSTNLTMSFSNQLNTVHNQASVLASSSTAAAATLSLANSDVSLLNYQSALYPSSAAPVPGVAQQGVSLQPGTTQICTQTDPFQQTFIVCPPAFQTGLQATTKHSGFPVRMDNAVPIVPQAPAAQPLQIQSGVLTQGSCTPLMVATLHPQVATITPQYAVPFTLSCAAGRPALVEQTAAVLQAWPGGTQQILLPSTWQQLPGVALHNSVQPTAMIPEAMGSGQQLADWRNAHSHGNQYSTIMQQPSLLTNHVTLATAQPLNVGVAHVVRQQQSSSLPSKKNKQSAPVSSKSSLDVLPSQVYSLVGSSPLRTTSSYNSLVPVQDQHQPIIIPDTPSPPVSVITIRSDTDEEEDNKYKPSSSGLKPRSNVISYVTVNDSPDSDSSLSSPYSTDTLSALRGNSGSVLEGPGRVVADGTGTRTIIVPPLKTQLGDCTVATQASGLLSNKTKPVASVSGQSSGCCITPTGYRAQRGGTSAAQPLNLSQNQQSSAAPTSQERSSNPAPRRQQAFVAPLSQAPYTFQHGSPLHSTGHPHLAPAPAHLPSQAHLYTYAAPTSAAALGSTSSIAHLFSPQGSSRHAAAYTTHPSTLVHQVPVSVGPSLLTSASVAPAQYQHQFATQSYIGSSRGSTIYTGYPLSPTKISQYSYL
T38 sequence (Q16832 22-855): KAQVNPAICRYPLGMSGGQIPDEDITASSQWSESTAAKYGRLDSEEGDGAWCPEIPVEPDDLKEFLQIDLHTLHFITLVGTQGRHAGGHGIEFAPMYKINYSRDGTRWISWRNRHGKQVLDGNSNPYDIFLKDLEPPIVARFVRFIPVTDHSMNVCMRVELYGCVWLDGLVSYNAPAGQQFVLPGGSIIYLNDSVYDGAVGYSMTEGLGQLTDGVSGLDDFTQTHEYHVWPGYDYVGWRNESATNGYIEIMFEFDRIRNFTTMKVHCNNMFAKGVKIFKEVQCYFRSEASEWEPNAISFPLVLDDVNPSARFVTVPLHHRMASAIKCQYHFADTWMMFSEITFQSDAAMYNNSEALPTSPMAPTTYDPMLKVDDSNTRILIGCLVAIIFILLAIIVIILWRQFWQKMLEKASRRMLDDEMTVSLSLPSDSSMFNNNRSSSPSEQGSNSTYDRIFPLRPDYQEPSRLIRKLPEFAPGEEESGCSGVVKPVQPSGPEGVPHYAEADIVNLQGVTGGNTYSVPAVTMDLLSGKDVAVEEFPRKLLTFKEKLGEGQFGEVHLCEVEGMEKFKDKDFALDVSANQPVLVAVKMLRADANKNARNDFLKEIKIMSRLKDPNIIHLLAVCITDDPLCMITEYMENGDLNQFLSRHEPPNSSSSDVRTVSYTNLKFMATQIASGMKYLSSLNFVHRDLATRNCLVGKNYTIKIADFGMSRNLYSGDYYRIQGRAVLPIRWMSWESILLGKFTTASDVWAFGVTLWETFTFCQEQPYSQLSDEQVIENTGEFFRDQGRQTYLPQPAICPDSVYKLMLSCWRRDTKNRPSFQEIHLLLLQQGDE
T10 sequence (Q13131 whole entry): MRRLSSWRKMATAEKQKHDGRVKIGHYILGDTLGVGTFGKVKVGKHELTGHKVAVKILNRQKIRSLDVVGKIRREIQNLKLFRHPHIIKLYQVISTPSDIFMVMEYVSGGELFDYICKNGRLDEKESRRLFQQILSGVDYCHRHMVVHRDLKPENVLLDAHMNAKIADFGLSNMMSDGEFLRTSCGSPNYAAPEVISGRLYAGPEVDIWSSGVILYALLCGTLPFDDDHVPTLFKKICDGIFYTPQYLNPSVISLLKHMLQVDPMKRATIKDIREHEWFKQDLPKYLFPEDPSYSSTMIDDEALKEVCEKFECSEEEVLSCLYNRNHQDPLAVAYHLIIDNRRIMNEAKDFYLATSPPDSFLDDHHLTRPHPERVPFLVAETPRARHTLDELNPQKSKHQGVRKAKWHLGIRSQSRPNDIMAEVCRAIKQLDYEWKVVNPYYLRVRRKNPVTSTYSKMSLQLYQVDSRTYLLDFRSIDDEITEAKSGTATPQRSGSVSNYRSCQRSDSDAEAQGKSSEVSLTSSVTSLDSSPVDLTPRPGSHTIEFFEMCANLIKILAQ
T10 sequence (Q9Y478 whole entry partner): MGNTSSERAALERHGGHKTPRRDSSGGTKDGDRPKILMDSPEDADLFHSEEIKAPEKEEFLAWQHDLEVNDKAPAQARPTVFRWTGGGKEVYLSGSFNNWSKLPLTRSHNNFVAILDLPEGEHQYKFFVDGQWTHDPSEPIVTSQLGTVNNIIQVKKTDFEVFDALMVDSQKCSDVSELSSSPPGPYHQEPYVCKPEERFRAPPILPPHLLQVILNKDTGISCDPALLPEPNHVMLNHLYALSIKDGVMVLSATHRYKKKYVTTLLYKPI
T10 sequence (P54619 whole entry partner): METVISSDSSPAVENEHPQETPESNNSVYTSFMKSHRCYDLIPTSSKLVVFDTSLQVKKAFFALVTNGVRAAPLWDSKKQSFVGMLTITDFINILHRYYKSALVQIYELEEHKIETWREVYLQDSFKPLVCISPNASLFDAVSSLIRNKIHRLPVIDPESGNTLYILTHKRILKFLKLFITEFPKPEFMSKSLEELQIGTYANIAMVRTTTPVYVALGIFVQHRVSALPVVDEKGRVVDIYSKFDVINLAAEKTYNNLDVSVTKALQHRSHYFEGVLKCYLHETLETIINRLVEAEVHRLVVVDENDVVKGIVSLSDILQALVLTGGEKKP
T13 sequence (P50750 whole entry): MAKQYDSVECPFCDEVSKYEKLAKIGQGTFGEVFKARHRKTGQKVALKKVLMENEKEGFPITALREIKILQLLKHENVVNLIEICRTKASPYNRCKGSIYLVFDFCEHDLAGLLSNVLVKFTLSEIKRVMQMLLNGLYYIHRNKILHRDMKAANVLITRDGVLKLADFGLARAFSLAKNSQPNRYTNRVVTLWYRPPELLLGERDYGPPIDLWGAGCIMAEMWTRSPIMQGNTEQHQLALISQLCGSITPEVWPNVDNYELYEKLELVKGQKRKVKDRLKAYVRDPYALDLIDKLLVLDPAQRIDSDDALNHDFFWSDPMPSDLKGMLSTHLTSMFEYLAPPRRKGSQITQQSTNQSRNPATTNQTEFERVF
T13 sequence (O60563 whole entry partner): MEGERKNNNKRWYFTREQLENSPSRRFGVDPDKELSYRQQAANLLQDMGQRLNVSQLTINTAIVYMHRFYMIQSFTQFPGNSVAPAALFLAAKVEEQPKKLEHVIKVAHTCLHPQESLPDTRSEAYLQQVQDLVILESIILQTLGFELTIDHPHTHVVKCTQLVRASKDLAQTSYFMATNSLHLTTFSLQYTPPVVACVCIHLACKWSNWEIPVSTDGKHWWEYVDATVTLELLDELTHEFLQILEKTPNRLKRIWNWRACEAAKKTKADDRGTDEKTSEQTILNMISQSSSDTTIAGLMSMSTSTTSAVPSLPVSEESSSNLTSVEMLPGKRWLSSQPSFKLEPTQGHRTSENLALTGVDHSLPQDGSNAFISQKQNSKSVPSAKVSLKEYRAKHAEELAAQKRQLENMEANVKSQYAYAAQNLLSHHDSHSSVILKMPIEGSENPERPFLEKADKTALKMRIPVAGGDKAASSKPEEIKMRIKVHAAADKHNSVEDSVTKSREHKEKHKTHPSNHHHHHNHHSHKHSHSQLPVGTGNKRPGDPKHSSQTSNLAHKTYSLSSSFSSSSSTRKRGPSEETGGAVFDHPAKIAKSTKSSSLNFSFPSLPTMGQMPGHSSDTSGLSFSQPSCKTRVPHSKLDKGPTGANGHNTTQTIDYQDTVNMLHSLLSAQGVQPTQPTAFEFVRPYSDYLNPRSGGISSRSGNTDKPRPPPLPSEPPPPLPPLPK
T21 sequence (Q15349 whole entry): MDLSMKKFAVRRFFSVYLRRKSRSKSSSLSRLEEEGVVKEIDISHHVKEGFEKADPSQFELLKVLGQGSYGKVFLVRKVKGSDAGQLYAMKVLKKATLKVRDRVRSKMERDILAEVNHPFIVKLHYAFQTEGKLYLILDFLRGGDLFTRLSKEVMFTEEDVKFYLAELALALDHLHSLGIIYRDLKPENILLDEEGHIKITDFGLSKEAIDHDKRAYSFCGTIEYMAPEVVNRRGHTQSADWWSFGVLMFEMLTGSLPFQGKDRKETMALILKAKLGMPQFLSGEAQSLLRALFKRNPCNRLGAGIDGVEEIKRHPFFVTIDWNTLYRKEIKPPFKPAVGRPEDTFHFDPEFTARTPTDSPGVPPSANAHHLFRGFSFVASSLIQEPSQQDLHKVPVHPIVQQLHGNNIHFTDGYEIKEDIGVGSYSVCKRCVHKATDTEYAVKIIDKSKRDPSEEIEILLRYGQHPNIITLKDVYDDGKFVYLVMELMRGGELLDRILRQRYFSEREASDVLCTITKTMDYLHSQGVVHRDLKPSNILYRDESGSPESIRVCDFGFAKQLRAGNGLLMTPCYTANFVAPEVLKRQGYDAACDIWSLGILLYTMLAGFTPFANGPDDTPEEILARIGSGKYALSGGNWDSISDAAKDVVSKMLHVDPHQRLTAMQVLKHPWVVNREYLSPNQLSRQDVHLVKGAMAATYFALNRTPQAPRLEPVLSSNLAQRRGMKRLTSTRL

COCCN1C[C@@H](NC(=O)Nc2c(-c3ccccc3)nc3c(C)nccn23)[C@H](c2ccc(F)c(F)c2)C1 [Example 20, 1-((3S,4R)-4-(3,4-difluorophenyl)-1-(2-methoxyethyl)pyrrolidin-3-yl)-3-(8-methyl-2-phenylimidazo[1,2-a]pyrazin-3-yl)urea]
Avg. POC (PTK6): 114 POC | Avg. POC (AURKA): 118 POC | Avg. POC (HIPK1): 111 POC | Avg. POC (CHK1): 103.5 POC | Avg. POC (EphA8): 98.5 POC | Avg. POC (DAPK2): 104 POC | Avg. POC (Syk): 99.5 POC | Avg. POC (MSK1): 121 POC | Avg. POC (Fms): 87.5 POC | Avg. POC (AMPK(A1/B1/G1)): 108.5 POC | Avg. POC (CK1_y): 104 POC | Avg. POC (Plk3): 99.5 POC | Avg. POC (MAP3K5): 88 POC | Avg. POC (CDK9/cyclinT1): 109.5 POC | Avg. POC (MKNK2): 103 POC | Avg. POC (AKT1): 109 POC | Avg. POC (MARK2): 98 POC | Avg. POC (p38gamma): 105.5 POC | Avg. POC (GSK3alpha): 109.5 POC | Avg. POC (HIPK3): 105.5 POC | Avg. POC (JAK2): 117 POC | Avg. POC (Rsk3): 107.5 POC | Avg. POC (PKCeta): 105.5 POC | Avg. POC (ITK): 122.5 POC | Avg. POC (MYLK): 110 POC | Avg. POC (Plk1): 104 POC | Avg. POC (CDK5/p35): 121 POC | Avg. POC (EphA4): 106 POC | Avg. POC (PTK5): 111 POC | Avg. POC (PKCbetaI): 101 POC | Avg. POC (EphA3): 98 POC | Avg. POC (DAPK3): 103 POC | Avg. POC (Ros): 95.5 POC | Avg. POC (EphA5): 123 POC | Avg. POC (SGK3): 109 POC | Avg. POC (SGK2): 105 POC | Avg. POC (IKKbeta): 107.5 POC | Avg. POC (ROCK-I): 95.5 POC | Avg. POC (DDR2): 106 POC | Avg. POC (PASK): 111 POC | Avg. POC (PRKG1alpha): 111.5 POC
